From US20240350489A1, “LOU064 FOR TREATING MULTIPLE SCLEROSIS” (NOVARTIS AG, priority 2021, published 2024)
“Also recorded” adds a separate entry of the source.

Experiments:
BTK = molecular target: T1, BTK (Mus musculus, UniProt P35991); test: BTK occupancy in spleen, lymph nodes and brain homogenate, HumanMOG EAE; assay type: in vivo
T1 construct: from tissue; host or cells: spleen, inguinal lymph nodes, blood and brain homogenate of C57BL/6 EAE mice
Description: BTK occupancy in spleen was determined at 1, 5 and 8 hours after b.i.d. oral dosing of LOU064 (FIG. 4).
BTK occupancy was assessed in brain homogenates that had been prepared for compound exposure analysis (FIG. 6). […] Variability in brain BTK occupancy might be due to the fact that the analysis was performed on the remainder of the homogenates prepared for compound level assessment.

[1] = test system: MOG-specific immunoglobulin responses; test: MOG-specific immunoglobulin responses in serum, HumanMOG EAE; assay type: in vivo, mouse; settings: oral b.i.d. treatment
Description: In the HumanMOG-induced EAE model the (auto)antibody response is weakly pathogenic.

[2] = test system: splenocytes and draining lymph node cells; test: Ex vivo MOG-induced recall proliferation, HumanMOG EAE; parameters: species or system mouse; settings: dosed in vivo
Description: Prophylactic LOU064 (b.i.d.) treatment during HumanMOG EAE inhibits (auto)antigen recall proliferation. Isolated splenocytes and draining lymph node cells were incubated in vitro with HumanMOG for 48 hours. Antigen-specific proliferation was determined by [^3H]-thymidine incorporation. […] Group sizes n=5 per treatment.
Ex vivo MOG-induced recall proliferation responses were studied using isolated splenocytes and draining lymph node cells collected on day 8 post-immunization. […] In contrast, plate-bound anti-CD3/CD28 polyclonal stimulation of lymph node cells was unaffected by the in vivo treatment.

[3] = test system: B-cell and CD4+ T-cell populations; test: Ex vivo analysis of B-cell and CD4+ T-cell populations, HumanMOG EAE; parameters: species or system mouse; settings: dosed in vivo b.i.d.
Description: Prophylactic LOU064 (b.i.d.) treatment during HumanMOG EAE reduces Th17 cells. […] Group sizes n=5 per treatment. Statistical significance (ANOVA with Dunnett's test) is shown as *p<0.05.

[4] = test system: MOG-specific immunoglobulin responses; test: MOG-specific autoantibodies in serum, RatMOG EAE; assay type: in vivo, mouse; settings: 30 mg/kg b.i.d., day 21, vs vehicle
Description: In immunized mice, treated with either vehicle or LOU064, the MOG-specific autoantibody levels, total IgM and IgG subclasses were markedly higher as compared to naive mice. LOU064 treatment had no effect on the MOG-specific IgM and IgG responses in serum compared to vehicle treated mice.

[5] = test system: neuroinflammation signature in microglia; test: scRNA-seq analysis of brains and spinal cords of RatMOG EAE mice; assay type: in vivo, mouse; settings: LOU064 vs controls
Description: 10X Genomics Chromium raw sequencing reads were processed with Cell Ranger [Zheng, G. et al. (2017), Nat Commun 8, 14049]. All subsequent analyses were carried out in R v4.1 and Bioconductor v3.14, loosely following the guidelines in “Orchestrating single-cell analysis with Bioconductor” [Amezquita, R. A. et al (2020), Nat Methods 17, 137-145] and using the framework provided by the scuttle, scater [Davis J McCarthy et al. (2017), Bioinformatics, Vol 33, 8, 1179-1186] and scran [Lun ATL et al. (2016), F1000 Research, 5:2122;
To correct for library size and composition biases, normalization was performed by pooling cells and deconvoluting size factors, followed by a log2 transformation. […]
For each cell type, pseudobulk differential expression analysis was performed using edgeR [Robinson M D et al. (2010), Bioinformatics, 26(1), 139-140], followed by gene set enrichment analysis with fgsea [Gennady Korotkevich et al., doi: https://doi.org/10.1101/060012] and multiple gene set collection from MSigDB [Arthur Liberson et al., Bioinformatics, Vol 27, 12:1739-1740]. A neuroinflammation signature from the Human Phenotype Ontology [Kohler S. et al. (2021) Nucleic Acids Res. 49(D1):D1207-D1217. doi: 10.1093/nar/gkaa1043] was scored with UCell [Andreatta M. et al. (2021), Comput Struct Biotechnol J. 19:3796-3798] and its significance assessed with a one-tailed Mann-Whitney U test.

[6] = 52-week open label extension study in CSU subjects, safety; settings: for safety signals / safety profile: 100 mg b.i.d. open-label, interim analyses
Description: In a 52-week open label extension study to evaluate the long-term safety and tolerability of LOU064 in eligible subjects with CSU who participated in the Phase 2b study the dose used was 100 mg b.i.d.

[7] = 3 mg/kg b.i.d., 1, 5 and 8 hours after dosing
[8] = 30 mg/kg b.i.d., 1, 5 and 8 hours after dosing
[9] = 100 mg B.I.D., N = 100, interim cut off 31 Aug. 2020
[10] = ES, 100 mg b.i.d., N = 183, listed as remibrutinib

T1 sequence (P35991 whole entry): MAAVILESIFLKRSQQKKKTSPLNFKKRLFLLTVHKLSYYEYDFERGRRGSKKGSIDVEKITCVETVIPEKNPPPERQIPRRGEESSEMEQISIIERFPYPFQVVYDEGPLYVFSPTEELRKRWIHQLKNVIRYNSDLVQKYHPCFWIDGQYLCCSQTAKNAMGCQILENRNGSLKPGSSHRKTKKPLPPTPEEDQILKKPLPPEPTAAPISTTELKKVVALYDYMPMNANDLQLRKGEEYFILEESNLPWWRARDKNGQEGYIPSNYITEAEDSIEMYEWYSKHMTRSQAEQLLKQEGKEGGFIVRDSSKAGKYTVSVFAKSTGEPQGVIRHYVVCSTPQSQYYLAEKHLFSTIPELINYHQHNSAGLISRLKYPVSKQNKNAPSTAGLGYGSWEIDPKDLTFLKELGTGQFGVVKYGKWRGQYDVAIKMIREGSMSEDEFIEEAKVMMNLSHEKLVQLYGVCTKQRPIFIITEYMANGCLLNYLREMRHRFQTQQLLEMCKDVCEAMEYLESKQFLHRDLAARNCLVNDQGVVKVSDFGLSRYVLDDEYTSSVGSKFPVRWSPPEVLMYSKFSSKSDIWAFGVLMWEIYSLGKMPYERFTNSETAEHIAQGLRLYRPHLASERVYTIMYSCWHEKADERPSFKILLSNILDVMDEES

SMILES: C=CC(=O)N(C)CCOc1c(N)ncnc1-c1cc(F)cc(NC(=O)c2ccc(C3CC3)cc2F)c1C [LOU064, N-(3-(6-amino-5-(2-(N-methylacrylamido)ethoxy)pyrimidin-4-yl)-5-fluoro-2-methylphenyl)-4-cyclopropyl-2-fluorobenzamide]
- BTK occupancy in lymph nodes (BTK; [7]): maximal for both doses and showed a decay after a 3 mg/kg dose; also recorded: complete BTK occupancy
- BTK occupancy in spleen (BTK; [7]): maximal for both doses and showed a decay after a 3 mg/kg dose; also recorded: complete BTK occupancy
- BTK occupancy in brain homogenate (BTK; 3 mg/kg b.i.d., 1 hour timepoint): only minimal BTK occupancy
- BTK occupancy in brain homogenate (BTK; 30 mg/kg b.i.d.): maximal BTK occupancy with a decline over the dosing interval
- BTK occupancy in lymph nodes (BTK; [8]): a more sustained occupancy after the 30 mg/kg dose
- BTK occupancy in spleen (BTK; [8]): a more sustained occupancy after the 30 mg/kg dose
- MOG-specific IgG2c [1]: No change was detected
- MOG-specific IgM and IgG responses in serum [1]: significantly reduced
- MOG-specific proliferation ([3H]-thymidine incorporation) ([2]; cells incubated with HumanMOG 48 hours): dose-dependent reduction in MOG-specific proliferation
- polyclonal stimulation with anti-CD3/CD28 ([2]; lymph node cells): unchanged
- Th1 and Tregs [3]: unchanged; also recorded: No changes were observed
- Th17 (IL-17+) cells [3]: reduced; also recorded: significant reduction
- frequencies of B-cell populations [3]: no significant changes in total B-cell populations
- total CD4+ T-cell population [3]: unchanged
- MOG-specific IgM and IgG responses in serum [4]: had no effect; also recorded: did not affect
- neuroinflammation gene signature in microglia [5]: significant downregulation across most conditions; also recorded: significantly downregulated
- Death [6, 9]: 0 n
- Discontinued study due to an SAE(s) [6, 9]: 0 n
- safety signals / safety profile [6]: No safety signal has been observed; also recorded: no safety signals have been observed; also recorded: well tolerated and with a favorable safety profile
- safety signals / safety profile ([6]; listed as Remibrutinib): no new safety signals
- dose-limiting liver enzyme elevations and other off-target-effects ([6]; 100 mg b.i.d. over an extended period of time): does not induce any dose-limiting liver enzyme elevations and other off-target-effects
- AE Headache (PT) ([6]; 100 mg b.i.d., N = 100 interim): 6%
- AE Infections and infestations (SOC) ([6]; 100 mg b.i.d., N = 100 interim): 14%
- AE Skin and subcutaneous tissue disorders (SOC) ([6]; 100 mg b.i.d., N = 100 interim): 13%
- AE diarrhea (PT) ([6]; 100 mg b.i.d., N = 100 interim): 4%
- AE dizziness (PT) ([6]; 100 mg b.i.d., N = 100 interim): 3%
- AE gastroenteritis (PT) ([6]; 100 mg b.i.d., N = 100 interim): 3%
- bleeding events or events under SOC Blood and lymphatic system disorders ([6]; 100 mg b.i.d., N = 100 interim): no bleeding events
- ECG findings or QT of >500 ms ([6]; ES and CS, any patient): no significant ECG findings or QT of >500 ms noted in any patient
- AE Headache (PT) [6, 10]: 6.6%
- AE Infections and infestations (SOC) [6, 10]: 23.0%
- AE Skin and subcutaneous tissue disorders (SOC) [6, 10]: 17.5%
- Discontinued study treatment due to AE(s) [6, 10]: 6 n
- Patients with SAE(s) [6, 10]: 4 n
- AE Skin and subcutaneous tissue disorders (SOC) ([6]; ES, 100 mg b.i.d., N=183): 32 n
- Incidence of AESI bleeding ([6]; ES, 100 mg b.i.d., N=183): 4.4%
- Incidence of AESI cytopenias ([6]; ES, 100 mg b.i.d., N=183): 0.5%
- Incidence of AESI infections ([6]; ES, 100 mg b.i.d., N=183): 23%
- deaths ([6]; ES, 100 mg b.i.d., N=183): no deaths
- patients with isolated ALT>3xULN ([6]; ES, N=183, normalized within 4 weeks): 1 patient
